From the supplement of paper PMC10307832

Tests used:
Assay in all cases: relative viability (nuclei count vs DMSO), 5 days (fraction); higher = more cells survive
Vandetanib + Vorinostat = compound: COc1cc2/c(=N/c3ccc(Br)cc3F)nc[nH]c2cc1OCC1CCN(C)CC1 [Vandetanib] + O=C(CCCCCCC(=O)Nc1ccccc1)NO [Vorinostat] (partner 1 µM)
Procedure, shortened: (§1)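 Lung cancer cell lines were pin-tool dosed in 1536-well plates on the day after seeding, with either a lone drug or a fixed anchor-drug dose plus five library-drug doses (not always all listed) in √10 steps. Nuclei were counted on 4× images after 5 days. Relative viability is the ratio of treated-well to vehicle-well nuclei counts, with each value a median of duplicate plates.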

Vandetanib + Dasatinib = compound: COc1cc2/c(=N/c3ccc(Br)cc3F)nc[nH]c2cc1OCC1CCN(C)CC1 [Vandetanib] + Cc1nc(Nc2ncc(C(=O)Nc3c(C)cccc3Cl)s2)cc(N2CCN(CCO)CC2)n1 [Dasatinib] (partner 0.075 µM)
Procedure, shortened: as §1

NVP-TAE684 + AZD7762 = compound: COc1cc(N2CCC(N3CCN(C)CC3)CC2)ccc1Nc1ncc(Cl)c(Nc2ccccc2S(=O)(=O)C(C)C)n1 [NVP-TAE684] + NC(=O)Nc1cc(-c2cccc(F)c2)sc1C(=O)N[C@H]1CCCNC1 [AZD7762] (partner 0.2 µM)
Procedure, shortened: as §1

Vandetanib + AZD7762 = compound: COc1cc2/c(=N/c3ccc(Br)cc3F)nc[nH]c2cc1OCC1CCN(C)CC1 [Vandetanib] + NC(=O)Nc1cc(-c2cccc(F)c2)sc1C(=O)N[C@H]1CCCNC1 [AZD7762] (partner 0.2 µM)
Procedure, shortened: as §1

Row | Cell Line | relative viability (Vandetanib + Vorinostat; first compound 0.02 µM) | relative viability (Vandetanib + Vorinostat; first compound 0.06325 µM) | relative viability (Vandetanib + Vorinostat; first compound 0.2 µM) | relative viability (Vandetanib + Vorinostat; first compound 0.6325 µM) | relative viability (Vandetanib + Vorinostat; first compound 2 µM) | relative viability (Vandetanib + Dasatinib; first compound 0.02 µM) | relative viability (Vandetanib + Dasatinib; first compound 0.06325 µM) | relative viability (Vandetanib + Dasatinib; first compound 0.2 µM) | relative viability (Vandetanib + Dasatinib; first compound 0.6325 µM) | relative viability (Vandetanib + Dasatinib; first compound 2 µM) | relative viability (NVP-TAE684 + AZD7762; first compound 0.2 µM) | relative viability (NVP-TAE684 + AZD7762; first compound 0.6325 µM) | relative viability (NVP-TAE684 + AZD7762; first compound 2 µM) | relative viability (Vandetanib + AZD7762; first compound 0.02 µM) | relative viability (Vandetanib + AZD7762; first compound 0.06325 µM) | relative viability (Vandetanib + AZD7762; first compound 0.2 µM) | relative viability (Vandetanib + AZD7762; first compound 0.6325 µM) | relative viability (Vandetanib + AZD7762; first compound 2 µM)
1 | NCI-H2009 | 0.724 | 0.638 | 0.727 | 0.783 | 0.756 | 0.326 | 0.241 | 0.329 | 0.309 | 0.349 | – | – | – | – | – | – | – | –
2 | NCI-H2170 | 0.84 | 0.829 | 0.816 | 0.767 | 0.813 | 0.55 | 0.555 | 0.487 | 0.462 | 0.609 | 1.04 | 0.814 | 0.785 | 0.822 | 0.8 | 0.893 | 0.781 | 0.835
3 | NCI-H1648 | 0.473 | 0.506 | 0.596 | 0.375 | 0.627 | – | – | – | – | – | 0.677 | 0.56 | 0.399 | 0.643 | 0.601 | 0.676 | 0.638 | 0.625
4 | NCI-H1623 | – | – | – | – | – | 0.489 | 0.576 | 0.502 | 0.507 | 0.404 | – | – | – | – | – | – | – | –
5 | LU99A | 0.474 | 0.377 | 0.499 | 0.49 | 0.528 | 0.427 | 0.521 | 0.387 | 0.416 | 0.636 | 0.342 | 0.402 | 0.265 | 0.303 | 0.516 | 0.344 | 0.238 | 0.334
6 | PC-3 [JPC-3] | 0.808 | 0.739 | 0.492 | 0.449 | 0.348 | 0.952 | 0.865 | 0.954 | 0.497 | 0.571 | 0.821 | 0.673 | 0.54 | 0.766 | 0.729 | 0.591 | 0.512 | 0.419
7 | HCC-44 | 1.11 | 1.09 | 1.21 | 1.1 | 1.15 | – | – | – | – | – | 1.03 | 1.08 | 1.03 | 0.982 | 1.04 | 1.11 | 1.03 | 1.04
8 | H3255 | 0.763 | 0.704 | 0.808 | 0.507 | 0.644 | 0.364 | 0.358 | 0.325 | 0.252 | 0.264 | 0.939 | 0.823 | 0.881 | 0.898 | 0.812 | 0.824 | 0.636 | 0.377
9 | LXF-289 | 0.806 | 0.766 | 0.768 | 0.848 | 0.708 | 0.24 | 0.218 | 0.107 | 0.257 | 0.253 | 0.939 | 1.11 | 1.07 | 1.07 | 1.08 | 1.04 | 1.1 | 1.01
10 | NCI-H661 | 0.736 | 0.798 | 0.783 | 0.867 | 0.915 | 0.988 | 0.856 | 0.837 | 0.803 | 0.874 | – | – | – | – | – | – | – | –
11 | NCI-H1703 | – | – | – | – | – | – | – | – | – | – | 0.0907 | 0.102 | 0.0966 | 0.129 | – | 0.159 | 0.132 | 0.134
12 | SK-MES-1 | 1.05 | 0.916 | 1.1 | 0.949 | 0.795 | 0.358 | 0.33 | 0.347 | 0.27 | 0.286 | – | – | – | – | – | – | – | –
13 | NCI-H520 | 0.7 | 0.706 | 0.739 | 0.677 | 0.639 | 0.139 | 0.228 | 0.218 | 0.191 | 0.225 | – | – | – | – | – | – | – | –
14 | NCI-H1650 | 0.525 | 0.502 | 0.599 | 0.544 | 0.452 | 0.322 | 0.275 | 0.322 | 0.292 | 0.305 | – | – | – | – | – | – | – | –
15 | NCI-H2228 | 0.592 | 0.474 | 0.747 | 1.04 | 0.679 | 0.464 | 0.478 | 0.503 | 0.463 | 0.481 | – | – | – | – | – | – | – | –
16 | COR-L 105 | 0.922 | 0.807 | 0.829 | 0.822 | 0.537 | 0.337 | 0.322 | 0.271 | 0.281 | 0.184 | – | – | – | – | – | – | – | –
17 | NCI-H2023 | 0.563 | 0.516 | – | 0.561 | 0.489 | 0.584 | 0.563 | 0.514 | 0.542 | 0.59 | – | – | – | – | – | – | – | –
18 | SW 1573 | 0.635 | 0.674 | – | 0.957 | 0.751 | 0.449 | 0.577 | 0.598 | 0.441 | 0.674 | – | – | – | – | – | – | – | –
19 | IA-LM | 1.06 | 0.969 | 0.935 | 1.06 | 0.874 | – | – | – | – | – | – | – | – | – | – | – | – | –
20 | NCI-H1792 | – | – | – | – | – | 0.774 | 0.803 | 0.783 | 0.884 | 0.725 | 0.678 | 0.733 | 0.394 | 0.654 | 0.656 | 0.607 | 0.5 | 0.673
21 | SK-LU-1 | 0.879 | 0.494 | 0.798 | 0.918 | 0.767 | 0.195 | 0.151 | 0.184 | 0.18 | 0.173 | – | – | – | – | – | – | – | –
22 | COR-L23 | 0.427 | 0.406 | 0.463 | 0.451 | 0.516 | 0.485 | 0.438 | 0.462 | 0.446 | 0.564 | – | – | – | – | – | – | – | –
